# Values joined by “and” are separate entries in the source; they are usually repeats but may differ in a detail not shown here. Equal entries are not always repeated. Where two headings read alike, the source gives them in different places.
# Assays:
# gDNA from A. castellanii = assay: QAC-DNA interaction assay; assay type: binding, Acanthamoeba castellanii; settings: DNA:QAC ratios 1:0, 1:1, 1:10, 1:20; 15 min
# Method: FIGS. 3A and 3B show the QAC-DNA interaction. The absorbance of genomic DNA (0.6 ng/ml) extracted from A. castellani trophozoites measured at 260 nm with the Nanodrop after incubating for 15 minutes with 0 ng/ml, 0.6 ng/ml, 6 ng/ml or 12 ng/ml of QAC12 (FIG. 3A) or QAC16 (FIG. 3B) to give ratios of 1:0, 1:1, 1:10 and 1:20. DNA absorbance increased and decreased with increased […] and [QAC12] respectively. Data is mean absorbance at 260 nm±SD; n=4 independent experiments performed in triplicates.
# Genomic deoxynucleic acids (gDNA) from 10^8 A. castellanii trophozoites (treated with and without QAC) were extracted from cells harvested by centrifugation (850×g, 10 min), lysed with UNSET buffer (8M urea, […] NaCl, 2% SDS, […] ethylenediaminetetraacetic acid (EDTA), […] Tris-HCl, pH 7.5) and the DNA extracted with phenol-chloroform (1:1 v/v). The biphasic suspension with DNA enriched on the […] was centrifuged (12,000×g for 15 min, 4° C.) for clear separation and transferred to a new microcentrifuge tube. The DNA was precipitated with cold ethanol (100%, v/v) and 0.3M sodium acetate, washed twice with 70% (v/v) ethanol (12,000×g for 10 min, 4° C.), air dried and resuspended in distilled water. […]
# [1] = QACs; cited from earlier work
# A. castellanii cysts [2] = assay: Cytotoxicity assay on cysts (trypan blue); assay type: cell-based, Acanthamoeba castellanii ATCC 50370; settings: Acanthamoeba castellanii
# Method: (§1) Acanthamoeba castellanii ATCC 50370 trophozoites and cysts were cultured in Peptone Glucose (PG) medium and encystment medium (Chagla A H, Griffiths A J (1974) Microbiology: 85(1): 139-145) respectively at 25° C. Cysts were prepared by incubating trophozoites for 8 days in encystment medium and integrity validated with calcofluor (0.25 μg/ml) assay (Gatti S et al (2010) J. Med. Microbiol.; 59: 1324-1330) or sodium dodecyl sulfate (SDS, 0.5% w/v) disintegration assay (Dudley R et al (2005) Acta Trop.; 9: 100-8) and microscopic observation.
# The compounds used in this study all contained alkyl-carbon chains: three APCs [dodecyl-PC (APC12), tetradecyl-PC. (APC14) and hexadecyl-PC (APC16)] (Anatrace) and four QACs [docdecyl-TMAB (QAC12), tetradecyl-TMAB (QAC14), hexadecyl-TMAB (QAC16) and octadecyl-TMAB (QAC18)](Sigma). All were prepared to a stock concentration of 1 mg/ml and diluted as required by the experimental protocol in the cytotoxicity assays. A. castellanii trophozoites and cysts (at 10^5 cells/ml) with or without APCs or QACs (concentrations ranging from […] doubly diluted to 0.04 μg/ml to a final volume of 100 μl) in a 96-well plate were incubated at 25° C. for a duration determined by the experimental protocol.
# For the combined assay, similar concentrations of QAC18 and APC16 were prepared and 18.75 μg/ml and 37.5 μg/ml of QAC12 added (to a final volume of 100 μl) were added to 10^5 cells/mi in a 96-well plate and later incubated at 25° C. for a duration determined by the experimental protocol. Resazurin (7-Hydroxy-31-phenoxazin-3-one 10-oxide; 5 mg/ml; McBride J et al (2005) J. Clin. Microbiol.; 43: 629-634) and trypan blue (0.4 μg/ml; Mafra C S P et al (2013) Investig. Ophthalmol. Vis. Si.; 54: 6363-6372) were then added to trophozoites and cysts respectively after being exposed to the compounds and the cell viability estimated microscopically and from changes in absorbance (at 595 nm and 570 nm) respectively.
# (§2) Efficacy was expressed as a percentage of untreated controls for each drug concentration used and the data used to calculate the IC50. Cell density was estimated using the modified Neubaur hemocytometer and expressed as cells/ml.
# [3] = tested on: Acanthamoeba trophozoites; assay: Checkerboard dilution QAC-APC interaction (Bliss model); assay type: cell-based, Acanthamoeba castellanii; settings: APC12, APC14, APC16; 96 h at 25° C.
# Method: Acanthamoeba trophozoites (10^5 cells/ml. n=5/treatment) treated with 100 μg/ml doubly diluted to 0.06 μg/ml of QAC12 (FIG. 7A), […], QAC16 (FIG. 7C) and QAC18 (FIG. 7D) with APC 12 (i), APCI 4 (ii) and APC16 (iii) for 96 h at 25° C. Cell viability estimated by the alamarBlue assay the dose-response curves used to produce a surface analysis (right panel) and the interaction profile determined using the Bliss model. The degree of interaction characterised by the QCScore heuristic score are produced as heat map (left panel). The colour of each cell in the heatmap and the surface analysis represents the assay response at that dose combination; red to orange, antagonistic: yellow to green, additive and blue, synergistic.
# The change in potency between QAC and APC prompted us to used the checkerboard dilution method to identify synergistic interactions (FIG. 7A-D). Three interaction profiles, antagonistic (orange to red), additive (yellow to green) and synergistic (blue) were observed, with optimal synergistic interactions deemed to be significant occurring between 20-38%; (FIG. 7).
# [4] = tested on: A. castellanii trophozoites; assay: Trophozoite-cyst conversion in encystment medium; assay type: cell-based, Acanthamoeba castellanii ATCC 50370; settings: encystment medium supplemented with 37.5 μg/ml of QAC12
# Method: Acanthamoeba trophozoites (10^5 cells/ml) incubated for up to 192 h in encystment medium inoculated with (dark grey) and without (light grey) QAC12 at 25° C. The number of trophozoites remaining estimated microscopically and expressed as a percent of total trophozoites at the start of the assay. Data is mean […]±SD; n=4 independent experiments performed in triplicates.
# as §1
# [5] = tested on: A. castellanii trophozoites; assay: Cytotoxicity assay on trophozoites (resazurin / alamarBlue); assay type: cell-based, Acanthamoeba castellanii ATCC 50370; settings: for IC50: Acanthamoeba castellanii, Table 2, read-out: IC50 A. castellanii trophozoites
# Method: as §1
# The compounds used in this study all contained alkyl-carbon chains: three APCs [dodecyl-PC (APC12), tetradecyl-PC. (APC14) and hexadecyl-PC (APC16)] (Anatrace) and four QACs [docdecyl-TMAB (QAC12), tetradecyl-TMAB (QAC14), hexadecyl-TMAB (QAC16) and octadecyl-TMAB (QAC18)](Sigma). All were prepared to a stock concentration of 1 mg/ml and diluted as required by the experimental protocol in the cytotoxicity assays. […]
# […] Resazurin (7-Hydroxy-31-phenoxazin-3-one 10-oxide; 5 mg/ml; McBride J et al (2005) J. Clin. Microbiol.; 43: 629-634) and trypan blue (0.4 μg/ml; Mafra C S P et al (2013) Investig. Ophthalmol. Vis. Si.; 54: 6363-6372) were then added to trophozoites and cysts respectively after being exposed to the compounds and the cell viability estimated microscopically and from changes in absorbance (at 595 nm and 570 nm) respectively.
# as §2
# A. castellanii cysts [6] = assay: Drug wash-out / alamarBlue-reversion assay, cysts; assay type: cell-based, Acanthamoeba castellanii ATCC 50370; settings: for Back transformation to trophozoites after drug wash-out: Cysts; as to Back transformation to trophozoites after drug wash-out: key: +: indicates cells reverting back to trophozoites after washout; and capable of oxidizing reduced alamarBlue from blue to pink after 8 days; −: indicates cell that did not revert to trophozoites after wash-out and unable to oxidise reduced alamarBlue solution
# Method: For the drug kinetic assay, viability was assessed by the linked alamarBlue-reversion assay. Drug-treated cysts were washed with PBS and fresh PG medium was added to allow reversion to trophozoites for 5 days, after which, alamar blue was added and viability estimated as described above.
# The cysticidal activity of QAC16 to QAC18 strongly correlated with (a) the alkyl-carbon chain lengths (Table 2) and the duration of drug contact (FIG. 8H). Like trophozoites, death was via leakage judged by 40% and 50% increase in DNA and proteins in the external milieu after 1 h (FIGS. 9A and 9B). To investigate if the cyst were viable, a complementary viability assay that involved, drug washout, incubation in PG medium to allow reversion of viable cyst to trophozoite for 7 days, and estimation of viability using the oxidation of resazurin after 6 h.
# [7] = tested on: A. castellanii trophozoites; assay: Drug wash-out / alamarBlue-reversion assay, trophozoites; assay type: cell-based, Acanthamoeba castellanii ATCC 50370
# [8] = read-out: IC50 A. castellanii cysts
structure (smiles),measurement,setting,value
"CCCCCCCCCCCC[N+](C)(C)C.[Br-] [QAC12, Dodecyltrimethyl ammonium bromide]",Change of gDNA absorbance at 260 nm with increasing QAC,gDNA from A. castellanii,dose-dependent decreased absorbance
same,CMC,[1],^+3.5 ± 0.3 μM
same,IC50,A. castellanii cysts [2]; [8],> 37.5 µg/mL and > 122 µM
same,Interaction profile of QAC combined with APCs,[3],Significant synergistic ‘well defined’ interactions were more predominant
same,Delay of encystation,[4],96 h
same,Increase in absorbance at 570 nm (cell density) relative to control cells,"[5]; 96 h at 25° C., peak at 37.7 μg/ml, alamarBlue",4 fold
same,IC50,[5],> 37.5 µg/mL and > 122 µM
same,Effect on trophozoite biomass,[5]; FIG. 4,dose-dependent increased biomass
same,Activity against A. castellanii trophozoites,[5]; at up to 37.5 μg/ml,inactive
"CCCCCCCCCCCCCCCC[N+](C)(C)C.[Br-] [QAC16, hexadecyltrimethyl ammonium bromide]",CMC,[1],0.26 ± 0.2 µM
same,IC50,"A. castellanii cysts [2]; 96 h, read-out: Estimated IC50 against matured cysts",19 ± 0.03 µg/mL
same,IC50,A. castellanii cysts [2]; [8],19.2 µg/mL and 72 µM
same,Interaction profile of QAC combined with APCs,[3],less frequent and ‘noisy’
same,Resurgence of cysts after drug washout,A. castellanii cysts [6]; 37.5 μg/ml after 48 h,No resurgence
same,Back transformation to trophozoites after drug wash-out,"A. castellanii cysts [6]; 9.375 μg/ml, 24 h",+
same,Back transformation to trophozoites after drug wash-out,"A. castellanii cysts [6]; 9.375 μg/ml, 48 h",+
same,Back transformation to trophozoites after drug wash-out,"A. castellanii cysts [6]; 9.375 μg/ml, 72 h",+
same,Back transformation to trophozoites after drug wash-out,"A. castellanii cysts [6]; 18.75 μg/ml, 24 h",+
same,Back transformation to trophozoites after drug wash-out,"A. castellanii cysts [6]; 18.75 μg/ml, 48 h",+
same,Back transformation to trophozoites after drug wash-out,"A. castellanii cysts [6]; 18.75 μg/ml, 72 h",+
same,Back transformation to trophozoites after drug wash-out,"A. castellanii cysts [6]; 37.50 μg/ml, 24 h",+
same,Back transformation to trophozoites after drug wash-out,"A. castellanii cysts [6]; 37.50 μg/ml, 48 h",−
same,Back transformation to trophozoites after drug wash-out,"A. castellanii cysts [6]; 37.50 μg/ml, 72 h",−
same,Back transformation to trophozoites after drug wash-out,"[7]; 9.375 μg/ml, 1 h",+
same,Back transformation to trophozoites after drug wash-out,"[7]; 9.375 μg/ml, 24 h",+
same,Back transformation to trophozoites after drug wash-out,"[7]; 9.375 μg/ml, 48 h",+
same,Back transformation to trophozoites after drug wash-out,"[7]; 9.375 μg/ml, 72 h",+
same,Back transformation to trophozoites after drug wash-out,"[7]; 9.375 μg/ml, 96 h",+
same,Back transformation to trophozoites after drug wash-out,"[7]; 18.75 μg/ml, 1 h",+
same,Back transformation to trophozoites after drug wash-out,"[7]; 18.75 μg/ml, 24 h",−
same,Back transformation to trophozoites after drug wash-out,"[7]; 18.75 μg/ml, 48 h",−
same,Back transformation to trophozoites after drug wash-out,"[7]; 18.75 μg/ml, 72 h",−
same,Back transformation to trophozoites after drug wash-out,"[7]; 18.75 μg/ml, 96 h",−
same,Back transformation to trophozoites after drug wash-out,"[7]; 37.50 μg/ml, 1 h",−
same,Back transformation to trophozoites after drug wash-out,"[7]; 37.50 μg/ml, 24 h",−
same,Back transformation to trophozoites after drug wash-out,"[7]; 37.50 μg/ml, 48 h",−
same,Back transformation to trophozoites after drug wash-out,"[7]; 37.50 μg/ml, 72 h",−
same,Back transformation to trophozoites after drug wash-out,"[7]; 37.50 μg/ml, 96 h",−
same,Amoebotoxicity after wash-out and replacement with PG medium,[7]; after 24 h at 18.75 μg/ml,amoebotoxic
same,Amoebotoxicity after wash-out and replacement with PG medium,[7]; from 1 h onwards at 37.5 μg/ml,amoebotoxic
same,IC50,[5],4.9 µg/mL and 19 µM

# Source: US20230102836A1, “Amoebicidal Compositions for Contact Lens Solutions” (University of the West of Scotland, priority 2019, published 2023)
